Test [1] addresses T1, Aldehyde dehydrogenase, dimeric NADP-preferring (Homo sapiens, UniProt P30838).
T1 sequence (P30838 whole entry): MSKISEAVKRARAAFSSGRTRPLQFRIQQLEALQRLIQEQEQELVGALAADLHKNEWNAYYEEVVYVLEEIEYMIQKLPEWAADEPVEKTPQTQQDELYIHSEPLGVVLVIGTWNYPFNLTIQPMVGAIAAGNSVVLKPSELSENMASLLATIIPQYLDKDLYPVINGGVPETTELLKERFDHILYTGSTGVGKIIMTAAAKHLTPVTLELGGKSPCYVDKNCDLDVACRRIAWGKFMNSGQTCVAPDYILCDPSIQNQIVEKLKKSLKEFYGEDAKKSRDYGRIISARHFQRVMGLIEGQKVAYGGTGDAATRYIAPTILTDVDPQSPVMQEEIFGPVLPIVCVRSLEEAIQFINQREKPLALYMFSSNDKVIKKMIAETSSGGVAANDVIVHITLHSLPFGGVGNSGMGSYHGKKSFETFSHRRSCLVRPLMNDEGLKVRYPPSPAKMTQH
The experiment in a line: Inhibition of recombinant human ALDH3A1 using benzaldehyde as substrate preincubated for 2 mins with NAD+ followed by substrate addition by UV-Vis spectrophotometric analysis.

Test [2] addresses T2, Delta-1-pyrroline-5-carboxylate dehydrogenase, mitochondrial (Homo sapiens) (UniProt P30038).
T2 sequence (whole entry): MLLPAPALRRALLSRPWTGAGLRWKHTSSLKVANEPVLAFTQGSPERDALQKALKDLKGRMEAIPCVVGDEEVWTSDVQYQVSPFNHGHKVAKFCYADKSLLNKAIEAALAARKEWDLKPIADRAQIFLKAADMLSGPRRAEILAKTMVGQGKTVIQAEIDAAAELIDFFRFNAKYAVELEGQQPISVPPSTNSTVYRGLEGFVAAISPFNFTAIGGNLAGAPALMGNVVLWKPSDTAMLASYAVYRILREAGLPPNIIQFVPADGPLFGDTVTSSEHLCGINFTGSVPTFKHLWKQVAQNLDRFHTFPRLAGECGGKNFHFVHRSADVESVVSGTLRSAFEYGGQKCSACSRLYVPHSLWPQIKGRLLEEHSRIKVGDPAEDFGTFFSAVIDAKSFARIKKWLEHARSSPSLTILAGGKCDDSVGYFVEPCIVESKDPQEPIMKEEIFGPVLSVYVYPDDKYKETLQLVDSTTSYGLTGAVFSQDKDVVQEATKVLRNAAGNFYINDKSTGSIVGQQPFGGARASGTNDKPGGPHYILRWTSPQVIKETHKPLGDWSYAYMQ
The experiment in a line: Effect on human ALDH4A1 at 20 uM preincubated for 2 mins with NAD+ followed by aldehyde substrate addition.

The source made the active and inactive calls. No cut-off for these calls is given here.

In the case of `Cn1c(=O)c2c(nc(SCC(N)=O)n2Cc2ccccc2F)n(C)c1=O`, the IC50 in test [1] is greater than 100 µM.
As to `CC(C)CCn1c(CN2CCN(C(=O)c3ccco3)CC2)nc2c1c(=O)n(C)c(=O)n2C`, the result in test [2] was inactive.

Usually IC50 stands for the midpoint of a concentration-inhibition curve.

Values taken from ChEMBL document CHEMBL3414499, “Characterization of two distinct structural classes of selective aldehyde dehydrogenase 1A1 inhibitors” (J Med Chem, 2015).
